Measured values published in patent publication US7863428B2, “Fluorogenic enzyme substrates and methods of preparation” (Tibotec BVBA, priority 2002, dated 2011).

Key:
[1] = test system: β-D-glucuronidase from Helix Pommatia type HP-2; experiment: Quick test for enzyme recognition of GUS substrates; type: biochemical
Protocol: Dibutyl GUS substrate (compound 27) was tested. First a solution of 2 mg of product (compound 27) in 2 ml pH 8 buffer solution (Merck Titrisol 9888) was made. 1 ml of this solution was kept aside, to the other 1 ml solution 5 μl (500 UNITS) β-D-glucuronidase from Helix Pommatia type HP-2 (Sigma G7017) was added. […] The plate was developed using isooctane/acetone 60:40.

[2] = test system: GUS reporter enzyme in hair-root cells of a transgenic tobacco plant; experiment: Testing substrate in vivo, confocal microscopy of hair-root cells; type: cell-based; conditions: cells not permeabilized
Source text: FIG. 1. Testing substrate (compound 27) in vivo.

[3] = test system: GUS transfected 293T cells; experiment: Enzymatic test in mammalian cells electroporated with pLNCGUS; type: cell-based; conditions: 10 μg/ml
Protocol: FIG. 3. Fluorescent (=GUS transfected) and non-fluorescent 293T cells with the presence of compound 27.
Cells were electroporated in the presence of 10 μg pLNCGUS and after 24 hours, compound 27 (10 mM stock in DMSO) was added to a final concentration of 10 μg/ml. Less than 5% of the cells had taken up the pLNCGUS plasmid.

CCCCc1ccc(O[C@@H]2OC(C(=O)O)[C@@H](O)[C@@H](O)C2O)c(-c2nc3ccc(CCCC)cc3c(=O)[nH]2)c1 (some centres unmarked) [compound 27]
fluorescent spot on TLC plate after incubation with GUS enzyme (conversion of non-fluorescent substrate into fluorescent product) ([1]; 2 mg in 2 ml pH 8 buffer, 500 UNITS enzyme per 1 ml, 15 minutes shaking at room temperature): clear fluorescent spot | detection of GUS reporter enzyme in the cell nucleus [2]: can be shown with lipophilic GUS substrate (compound 27) without permeabilizing cells | fluorescence of cells in the presence of substrate ([3]; 293T cells electroporated with 10 μg pLNCGUS, substrate added after 24 hours): Fluorescent | fluorescence of cells in the presence of substrate ([3]; cells electroporated in the absence of pLNCGUS): weak background fluorescence

CCCCCc1ccc(O[C@@H]2O[C@H](C(=O)O)[C@@H](O)[C@H](O)[C@H]2O)c(-c2nc3ccc(CCCCC)cc3c(=O)[nH]2)c1 [compound 24, 1-O-(2-(4-oxo-6-n-pentyl-3H-quinazolinyl)-4-n-pentylphenyl)-β-D-glucuronic acid]
reaction in GUS substrate test ([1]; after 30 minutes): clear positive reaction
